Results taken from PubChem BioAssay AID1918954 (Molecular Pharmacology Branch, DTP, NCI, 2023).
Values joined by “and” are separate entries in the source; they are usually repeats but may differ in a detail not shown here. Equal values may be shown once.

Test system: MDA-MB-468 complex spheroids with HUVEC/MSC, viability
Test: Anticancer human tumor MDA-MB-468 cell line growth inhibition;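 further: spheroids exposed to agents for seven days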;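 on viability, T/C: 100% = DMSO vehicle control viability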
Conditions: for viability, T/C: stronger effect = lower value; active means viability on the fitted dose curve at most 10% of control; inactive means the rest
Method in brief: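 Complex spheroids of tumor cells with HUVEC and human MSCs, exposed to iadademstat combined with other agents. Each agent tested in half-log steps from near clinical Cmax (else 10 microM top), DMSO ≤0.25%.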

[1] = curve of first compound, second compound 0.1 µM
[2] = curve of first compound, second compound 0.316 µM
[3] = curve of first compound, second compound 1 µM
[4] = curve of first compound, second compound 3.16 µM
[5] = curve of first compound, second compound 10 µM
[6] = second compound 0.1 µM, first compound 0.00949 µM
[7] = second compound 0.1 µM, first compound 0.03 µM
[8] = second compound 0.1 µM, first compound 0.0949 µM
[9] = second compound 0.1 µM, first compound 0.3 µM
[10] = second compound 0.316 µM, first compound 0.00949 µM
[11] = second compound 0.316 µM, first compound 0.03 µM
[12] = second compound 0.316 µM, first compound 0.0949 µM
[13] = second compound 0.316 µM, first compound 0.3 µM
[14] = second compound 1 µM, first compound 0.00949 µM
[15] = second compound 1 µM, first compound 0.03 µM
[16] = second compound 1 µM, first compound 0.0949 µM
[17] = second compound 1 µM, first compound 0.3 µM
[18] = second compound 3.16 µM, first compound 0.00949 µM
[19] = second compound 3.16 µM, first compound 0.03 µM
[20] = second compound 3.16 µM, first compound 0.0949 µM
[21] = second compound 3.16 µM, first compound 0.3 µM
[22] = second compound 10 µM, first compound 0.00949 µM
[23] = second compound 10 µM, first compound 0.03 µM
[24] = second compound 10 µM, first compound 0.0949 µM
[25] = second compound 10 µM, first compound 0.3 µM

Nc1ncn(C2CC(O)C(CO)S2)c(=O)n1 (stereo not drawn)
120 nM and 35.5 nM: IC50 (curve of compound)
inactive: viability, T/C (compound 0.000949 µM) 79.6% and 100% | viability, T/C (compound 0.003 µM) 74.9% and 93.2% | viability, T/C (compound 0.00949 µM) 75.2% and 70.6% | viability, T/C (compound 0.03 µM) 73.4% and 52% | viability, T/C (compound 0.0949 µM) 53.9% and 36.5% | viability, T/C (compound 0.3 µM) 34.9% and 20.4%

Nc1ccn(C2OC(CO)C(O)C2(F)F)c(=O)n1 (stereo not drawn) + NC1CC1c1ccc(-c2cccc(O)c2)cc1
active: viability, T/C [6] 4.63% | viability, T/C [7] 3.79% | viability, T/C [8] 3.9% | viability, T/C [9] 3.38% | viability, T/C [10] 4.2% | viability, T/C [11] 3.68% | viability, T/C [12] 3.51% | viability, T/C [13] 3.68% | viability, T/C [14] 4.05% | viability, T/C [15] 3.61% | viability, T/C [16] 3.27% | viability, T/C [17] 3.33% | viability, T/C [18] 4.05% | viability, T/C [19] 3.61% | viability, T/C [20] 3.53% | viability, T/C [21] 3.69% | viability, T/C [22] 4.33% | viability, T/C [23] 3.84% | viability, T/C [24] 3.5% | viability, T/C [25] 3.65%
< 0.949 nM: IC50 [1] | IC50 [2] | IC50 [3] | IC50 [4] | IC50 [5]
inactive: viability, T/C (second compound 0.1 µM, first compound 0.000949 µM) 33.8% | viability, T/C (second compound 0.1 µM, first compound 0.003 µM) 14.3% | viability, T/C (second compound 0.316 µM, first compound 0.000949 µM) 34.3% | viability, T/C (second compound 0.316 µM, first compound 0.003 µM) 14.2% | viability, T/C (second compound 1 µM, first compound 0.000949 µM) 32.4% | viability, T/C (second compound 1 µM, first compound 0.003 µM) 12.8% | viability, T/C (second compound 3.16 µM, first compound 0.000949 µM) 28.3% | viability, T/C (second compound 3.16 µM, first compound 0.003 µM) 11.9% | viability, T/C (second compound 10 µM, first compound 0.000949 µM) 24.4% | viability, T/C (second compound 10 µM, first compound 0.003 µM) 12.5%

O=C(C=Cc1cccc(S(=O)(=O)Nc2ccccc2)c1)NO
75.6 nM and 52 nM: IC50 (curve of compound)
inactive: viability, T/C (compound 0.00949 µM) 80.6% and 78.8% | viability, T/C (compound 0.03 µM) 72.8% and 67.2% | viability, T/C (compound 0.0949 µM) 44.4% and 25.1% | viability, T/C (compound 0.3 µM) 17.5% and 2.5% | viability, T/C (compound 0.949 µM) 4.34% and 0.22%

Nc1ccccc1NC(=O)c1ccc(CNC(=O)OCc2cccnc2)cc1 + NC1CC1c1ccc(-c2cccc(O)c2)cc1
60.5 nM: IC50 [4]
66.3 nM: IC50 [1]
61.8 nM: IC50 [2]
active: viability, T/C [9] 2.33% | viability, T/C (second compound 0.1 µM, first compound 0.949 µM) 0.21% | viability, T/C (second compound 0.1 µM, first compound 3 µM) 0.17% | viability, T/C [13] 2.63% | viability, T/C (second compound 0.316 µM, first compound 0.949 µM) 0.2% | viability, T/C (second compound 0.316 µM, first compound 3 µM) 0.15% | viability, T/C [17] 2.4% | viability, T/C (second compound 1 µM, first compound 0.949 µM) 0.19% | viability, T/C (second compound 1 µM, first compound 3 µM) 0.13% | viability, T/C [21] 2.56% | viability, T/C (second compound 3.16 µM, first compound 0.949 µM) 0.16% | viability, T/C (second compound 3.16 µM, first compound 3 µM) 0.14% | viability, T/C [25] 2.72% | viability, T/C (second compound 10 µM, first compound 0.949 µM) 0.24% | viability, T/C (second compound 10 µM, first compound 3 µM) 0.2%
56.8 nM: IC50 [3]
48.2 nM: IC50 [5]
inactive: viability, T/C [6] 101% | viability, T/C [7] 90.5% | viability, T/C [8] 31.8% | viability, T/C [10] 90.7% | viability, T/C [11] 86.1% | viability, T/C [12] 28.6% | viability, T/C [14] 108% | viability, T/C [15] 78.6% | viability, T/C [16] 27.5% | viability, T/C [18] 92% | viability, T/C [19] 88% | viability, T/C [20] 25.7% | viability, T/C [22] 72.1% | viability, T/C [23] 68.1% | viability, T/C [24] 24.5%
